From the supplement of paper PMC9334596
Structures can show the parent of a compound that is named as a salt.

Tested on: mPer2Luc MEF
Assay: PER2::LUC luminescence relative to vehicle control (fold of vehicle); higher = higher PER2::LUC reporter signal
Method: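 Secondary dose-response validation of 72 circadian-modulating compounds in mPer2Luc MEFs, threefold dilution series of six doses from 10 uM down to 0.04 uM. PER2::LUC luminescence read at 24 h and 30 h after treatment, normalised to vehicle (DMSO) control.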

[1] = time after treatment: 24-hour, concentration: 0.04μM
[2] = time after treatment: 24-hour, concentration: 0.37μM
[3] = time after treatment: 24-hour, concentration: 3.33μM
[4] = time after treatment: 24-hour, concentration: 10μM
[5] = time after treatment: 30-hour, concentration: 0.04μM
[6] = time after treatment: 30-hour, concentration: 0.37μM
[7] = time after treatment: 30-hour, concentration: 3.33μM
[8] = time after treatment: 30-hour, concentration: 10μM

| Structure (SMILES) | PER2::LUC luminescence [1] | PER2::LUC luminescence [2] | PER2::LUC luminescence [3] | PER2::LUC luminescence [4] | PER2::LUC luminescence [5] | PER2::LUC luminescence [6] | PER2::LUC luminescence [7] | PER2::LUC luminescence [8] |
| --- | --- | --- | --- | --- | --- | --- | --- | --- |
| O=C(O)CCCCC(CCSCc1ccccc1)SCc1ccccc1 (configuration not stated) [CPI-613] | 1 | 0.991 | 1.05 | 1.09 | 1.02 | 0.999 | 1.04 | 1.03 |
| CCOC(=O)N1c2ccc(C(F)(F)F)cc2[C@@H](N(Cc2cc(C(F)(F)F)cc(C(F)(F)F)c2)C(=O)OC)C[C@H]1CC | 0.989 | 0.984 | 0.939 | 0.99 | 0.935 | 0.917 | 0.959 | 0.943 |
| CCOC(=O)c1ccc(N(C)c2csc(-c3ccccc3)n2)cc1 [Neuropathiazol] | 0.939 | 1 | 1.04 | 1.1 | 0.913 | 0.937 | 1 | 1.08 |
| O=c1cc(N2CCOCC2)oc2c(-c3cccc4c3sc3ccccc34)cccc12 | 0.952 | 0.951 | 1.05 | 1.07 | 0.952 | 0.931 | 1.08 | 1.09 |
| COc1ccc(-c2nc3cc(F)ccc3s2)cc1OC | 1.36 | 1.39 | 1.36 | 1.36 | 1.66 | 1.69 | 1.67 | 1.58 |
| O=C(c1ccc(F)c(F)c1Nc1ccc(I)cc1F)N1CC(O)([C@@H]2CCCCN2)C1 [Cobimetinib] | 0.419 | 0.495 | 0.11 | 0.015 | 0.459 | 0.437 | 0.168 | 0.007 |
| COc1cc(CCc2cc(NC(=O)c3ccc(N4CC(C)NC(C)C4)cc3)n[nH]2)cc(OC)c1 (configuration not stated) [AZD4547] | 0.792 | 0.795 | 0.679 | 0.329 | 0.796 | 0.73 | 0.643 | 0.278 |
| Cc1cc2sc(NC(=O)Cc3ccccc3)nc2cc1Cl [LH-846] | 1.17 | 1.3 | 1.46 | 1.28 | 1.37 | 1.53 | 1.75 | 1.26 |
| OCc1ccc(-c2ccc(-c3ccc(CO)s3)o2)s1 | 1.37 | 1.41 | 1.49 | 1.24 | 1.62 | 1.63 | 1.68 | 1.41 |
| COc1ccc(CCN2CCC(Nc3nc4ccccc4n3Cc3ccc(F)cc3)CC2)cc1 [Astemizole] | 0.895 | 0.815 | 0.543 | 0.026 | 0.783 | 0.79 | 0.67 | 0.009 |
| COc1cc(OC)cc(C(=O)Nc2ccc(Cl)c(-c3nc4ccc(N(C)C)cc4[nH]3)c2)c1 [HhAntag] | 1.03 | 1.07 | 1.03 | 1.12 | 0.988 | 1.04 | 1.12 | 1.44 |
| COc1cc(-c2nc3ccccc3s2)ccc1O [YL-109] | 1.05 | 1.08 | 1.31 | 1.39 | 1.13 | 1.16 | 1.42 | 1.53 |
| Cc1cccc(C#Cc2ccccc2)n1 [MPEP Hydrochloride] | 1.11 | 1.19 | 1.33 | 1.39 | 1.22 | 1.41 | 1.57 | 1.73 |
| CC(C)c1onc(-c2c(Cl)cccc2Cl)c1COc1ccc(/C=C/c2cccc(C(=O)O)c2)c(Cl)c1 [GW4064] | 1.04 | 1.08 | 1.24 | 1.88 | 1.08 | 1.1 | 1.32 | 2.19 |
